Laboratory results as given in patent EP0710105B1, “SYNERGISTIC ANTHELMINTIC COMPOSITIONS AGAINST FASCIOLA HEPATICA AND OTHER FASCIOLA SPECIES” (THE AUSTRALIAN NATIONAL UNIVERSITY, priority 1993, dated 1994).
“And” between values parts separate entries of the source, which are not always exact repeats. Equal entries are not always repeated.

What was measured:
Format in all cases: in vivo
[1] = system: Fasciola hepatica aged 6 weeks resistant to salicylanilides (closantel), susceptible to the other drug families used; assay: Controlled test in sheep: efficacy against immature F. hepatica, salicylanilide-resistant strain; conditions: for efficacy: given alone at low dose rates
Text: (§1) In six controlled tests, a total of 212 merino wethers aged 1 to 2.5 years were used. The sheep were obtained from fluke free areas in North-West New South Wales.
(§2) Some isolates used in the trials were obtained from existing laboratory populations but the majority of the strains were isolated from the field, their resistance status was defined in several controlled tests and the isolates were then maintained in the laboratory. A laboratory strain from Compton U.K. (Compton Paddock Laboratories, Newbury, Berks. UK) was included in the tests. […] The other isolates originated from properties where salicylanilide compounds were used with variable frequency for the control of fasciolosis or haemonchosis, and also various benzimidazole carbamates were used for the control of gastrointestinal nematodes. Those isolates were further selected in the laboratory with benzimidazole compounds, such as luxabendazole (Hoechst Pty.Ltd., Frankfurt am Main, Germany) or by 8 weekly dosing a group of sheep with triclabendazole (Fasinex, CIBA-GEIGY Aust.Ltd., Pendle Hill, NSW Australia) in a 2 acre paddock with natural snail habitats contaminated with Fasciola hepatica .
(§3) In the trials, F.hepatica populations were isolated from properties and passaged through suitable intermediate host snails, Lymnaea tomentosa, L.viridis and L.columella in the laboratory. Sheep were then inoculated with the metacercariae of the selected strains by intraruminal injection of metacercariae suspended in 0.4% carboxy-methylcellulose solution. The sheep were divided into groups of 4 or 5. Standardised control tests (Boray, 1969), were carried out to determine the efficacy of various drugs and combinations against immature F.hepatica isolates.
(§4) Percentage reductions of fluke burdens for the sum of the individual drugs and for the combinations were estimated and their 95 % confidence limits were determined.
(§5) The drugs tested were triclabendazole (Fasinex, CIBA-GEIGY Australia Ltd.), clorsulon (Curatrem, MSD AGVET Rahway, New Jersey, USA), luxabendazole (Hoechst Pty.Ltd., Frankfurt am Main, Germany), closantel (Seponver, SmithKline Animal Health Australia Ltd.), closantel injectible (Flukiver, Janssen Pharma, Belgium), clorsulon injectible (Ivomec F, MSD Agvet,Rahway, New Jersey, USA) and nitroxynil injectible (Trodax, Cyanamid-Webster Australia Ltd.) The commercial formulations were used and for uniform pharmacokinetic distribution they were injected intraruminally (for those drugs it is equal to oral dosing) at the selected dose rate according to the body weight of the sheep 6 weeks after inoculation. In the trials with the injectible nitroxynil the drugs were applied as a subcutaneous injection. For each trial a group of sheep were left untreated as controls. The sheep were slaughtered 16 weeks after inoculation and the flukes were recovered from the livers and counted. […] The dose rates were selected based on many preliminary studies on the efficacy against F.hepatica aged 6 weeks. […] According to accepted standards (Boray, 1969) high efficacy is achieved when the drug reduces the fluke burden by 90% or more.

[2] = system: Fasciola hepatica aged 6 weeks (Susceptible to the drugs used); assay: Controlled test in sheep: efficacy against immature F. hepatica, susceptible strain
Text: as §1, §2, §3, §4, §5

[3] = system: Fasciola hepatica aged 6 weeks resistant to triclabendazole; assay: Controlled test in sheep: efficacy against immature F. hepatica, triclabendazole-resistant strain
Text: as §1, §2, §3, §4, §5

[4] = system: Fasciola hepatica aged 6 weeks resistant to salicylanilides (closantel) and benzimidazole carbamates (luxabendazole); assay: Controlled test in sheep: efficacy against immature F. hepatica, multiple resistant Armidale-Morven strain
Text: as §1, §2, §3, §4, §5

[5] = system: Fasciola hepatica aged 6 weeks, resistant to salicylanilides; assay: Controlled test in sheep, subcutaneous injection: efficacy against immature F. hepatica, Hampton II strain
Text: as §1, §2, §3, §4, §5

[6] = 5.0 mg/kg intraruminal, 5 mg/kg
[7] = 5.0 mg/kg intraruminal, listed as luxabendazole, 5 mg/kg
[8] = 7.5 mg/kg intraruminal, 7.5 mg/kg
[9] = 2.0 mg/kg intraruminal, 2 mg/kg
[10] = 7.0 mg/kg subcutaneous injection
[11] = 3.0 mg/kg subcutaneous injection

CCCSc1ccc2nc(NC(=O)OC)[nH]c2c1 [Albendazole, albendazole]
Mean No. of Fluke (SD) ([1]; 5.0 mg/kg intraruminal): 52.7 (6.9) | Percent Reduction of Fluke Burden (95% Confidence limits) ([1]; 5.0 mg/kg intraruminal): 28.4 (6, 72) % | efficacy [1]: very low efficacy

COC(=O)Nc1nc2cc(OS(=O)(=O)c3ccc(F)cc3)ccc2[nH]1 [Luxabendazole, luxabendazole]
Mean No. of Fluke (SD) ([2]; 5.0 mg/kg intraruminal): 32.0 (9.5) | Percent Reduction of Fluke Burden (95% Confidence limits) [2, 6]: 27.0 (6, 67) % | Percent Reduction of Fluke Burden (95% Confidence limits) [2, 7]: 26% | Mean No. of Fluke (SD) ([1]; 5.0 mg/kg intraruminal): 51.7 (25.3) | efficacy [1]: very low efficacy | Mean No. of Fluke (SD) ([3]; 5.0 mg/kg intraruminal): 62.7 (61.3) | Percent Reduction of Fluke Burden (95% Confidence limits) [3, 6]: 21.7 (1, 95) % | Percent Reduction of Fluke Burden (95% Confidence limits) [3, 7]: 21% | Mean No. of Fluke (SD) ([4]; 7.5 mg/kg intraruminal): 89.0 (22.6) | Percent Reduction of Fluke Burden (95% Confidence limits) ([4]; 7.5 mg/kg intraruminal): 0.0% | Percent Reduction of Fluke Burden (95% Confidence limits) [4, 8]: inefficient

CSc1nc2cc(Cl)c(Oc3cccc(Cl)c3Cl)cc2[nH]1 [Triclabendazole, triclabendazole]
Mean No. of Fluke (SD) ([2]; 2.0 mg/kg intraruminal 6 weeks after inoculation, slaughter at 16 weeks): 9.2 (8.3) | Percent Reduction of Fluke Burden (95% Confidence limits) ([2]; 2.0 mg/kg intraruminal, vs untreated controls, 2 mg/kg): 78.9 (58, 91) % | Percent Reduction of Fluke Burden (95% Confidence limits) ([2]; 2.0 mg/kg intraruminal, vs untreated controls, listed as triclabendazole, 2 mg/kg): 79% | Mean No. of Fluke (SD) ([3]; 2.0 mg/kg intraruminal): 55.0 (51.1) | Percent Reduction of Fluke Burden (95% Confidence limits) [3, 9]: 31.4 (2, 91) % | Percent Reduction of Fluke Burden (95% Confidence limits) ([3]; 2.0 mg/kg intraruminal, listed as triclabendazole, 2 mg/kg): 30% | Mean No. of Fluke (SD) ([4]; 2.0 mg/kg intraruminal): 25.5 (13.5) | Percent Reduction of Fluke Burden (95% Confidence limits) ([4]; 2.0 mg/kg intraruminal): 70% | Percent Reduction of Fluke Burden (95% Confidence limits) [4, 9]: 70.6 (53, 83) %

COC(=O)Nc1nc2ccc(Sc3ccccc3)cc2[nH]1 [Fenbendazole, fenbendazole]
Mean No. of Fluke (SD) ([1]; 5.0 mg/kg intraruminal): 71.0 (8.0) | Percent Reduction of Fluke Burden (95% Confidence limits) ([1]; 5.0 mg/kg intraruminal): 3.6% | efficacy [1]: very low efficacy

COC(=O)Nc1nc2ccc([S+]([O-])c3ccccc3)cc2[nH]1 (centres unmarked) [Oxfendazole, oxfendazole]
Mean No. of Fluke (SD) ([1]; 5.0 mg/kg intraruminal): 74.5 (14.8) | efficacy [1]: very low efficacy

N#Cc1cc(I)c(O)c([N+](=O)[O-])c1 [Nitroxynil, nitroxynil]
Mean No. of Fluke (SD) [5, 10]: 26.6 (6.6) | Percent Reduction of Fluke Burden (95% Confidence limits) [5, 10]: 8.3%

Cc1cc(C(C#N)c2ccc(Cl)cc2)c(Cl)cc1NC(=O)c1cc(I)cc(I)c1O (centres unmarked) [Closantel, closantel]
Mean No. of Fluke (SD) ([1]; 5.0 mg/kg intraruminal): 62.0 (17.1) | Mean No. of Fluke (SD) ([1]; 7.5 mg/kg intraruminal): 48.2 (38 6) | Percent Reduction of Fluke Burden (95% Confidence limits) ([1]; 7.5 mg/kg intraruminal): 34.5 (10, 72) % | efficacy [1]: very low efficacy | Mean No. of Fluke (SD) ([4]; 7.5 mg/kg intraruminal): 118 (113.3) | Percent Reduction of Fluke Burden (95% Confidence limits) ([4]; 7.5 mg/kg intraruminal): 0.0% | Percent Reduction of Fluke Burden (95% Confidence limits) [4, 8]: inefficient | Mean No. of Fluke (SD) [5, 11]: 24.4 (14.4) | Percent Reduction of Fluke Burden (95% Confidence limits) [5, 11]: 15.9%

Nc1cc(C(Cl)=C(Cl)Cl)c(S(N)(=O)=O)cc1S(N)(=O)=O [Clorsulon, clorsulon]
Mean No. of Fluke (SD) ([2]; 3.0 mg/kg intraruminal): 32.5 (4.4) | Percent Reduction of Fluke Burden (95% Confidence limits) ([2]; 3.0 mg/kg intraruminal): 25.9 (6, 67) % | Mean No. of Fluke (SD) ([2]; 5.0 mg/kg intraruminal): 30.0 (11.6) | Percent Reduction of Fluke Burden (95% Confidence limits) ([2]; 5.0 mg/kg intraruminal): 31.6 (9, 67) % | Mean No. of Fluke (SD) ([1]; 3.0 mg/kg intraruminal): 57.5 (19.6) | Percent Reduction of Fluke Burden (95% Confidence limits) ([1]; 3.0 mg/kg intraruminal): 21.9 (3, 74) % | efficacy [1]: very low efficacy | Mean No. of Fluke (SD) ([3]; 3.0 mg/kg intraruminal): 55.7 (42.9) | Percent Reduction of Fluke Burden (95% Confidence limits) ([3]; 3.0 mg/kg intraruminal, 3 mg/kg): 30% and 30.5 (2, 91) % | Mean No. of Fluke (SD) ([3]; 5.0 mg/kg intraruminal): 45.0 (26.3) | Percent Reduction of Fluke Burden (95% Confidence limits) [3, 6]: 43% and 43.9 (7, 89) % | Mean No. of Fluke (SD) ([4]; 5.0 mg/kg intraruminal): 41.0 (3.7) | Percent Reduction of Fluke Burden (95% Confidence limits) [4, 6]: 52.7 (33,72) % | Percent Reduction of Fluke Burden (95% Confidence limits) ([4]; 5.0 mg/kg intraruminal, listed as clorsulon, 5 mg/kg): 52% | Mean No. of Fluke (SD) ([5]; 2.0 mg/kg subcutaneous injection): 18.4 (6.6) | Percent Reduction of Fluke Burden (95% Confidence limits) ([5]; 2.0 mg/kg subcutaneous injection, 2 mg/kg): 36.6 (9.76) % | Percent Reduction of Fluke Burden (95% Confidence limits) ([5]; 2.0 mg/kg subcutaneous injection, listed as clorsulon, 2 mg/kg): 36.5%
